Laboratory results reported in patent US9604900B2, “Inhibitors of viral replication, their process of preparation and their therapeutical uses” (LABORATOIRE BIODIM, priority 2011, dated 2017).
pEC50: −log10 of the molar value.

Test system: NL4-3 strain of HIV-1
Test: HIV replication inhibition: CellTiter-Glo cyto-protection assay in MT4 cells infected with NL4-3 virus
Type: cell-based
Settings: Human immunodeficiency virus 1, NL43, 120 h, concentration giving 50% cyto-protection, 5 days incubation, CellTiter-Glo viability readout
Procedure: The antiviral activity, particularly against HIV, of compounds according to the invention is evaluated by the protocol described below.
Preparation of Virus stock of the NL4-3 strain of HIV-1 (Adachi et al, J Virol, 1986, 59(2):284-91).
The virus was prepared as described in Lopez et al (Lopez et al, Proc Natl Acad Sci USA., 2006, 103(40):14947-52, by transfecting 2×10^6 293 T cells (CRL-1573, ATCC) with following modifications: 6 μg of NL4-3 proviral DNA molecular clone were mixed with Fugene 6 transfection reagent from Roche, and used according to manufacturer's instructions. Forty eight hours later, transfected cell supernatants were harvested, filtered through 0.45-μm-pore-size filters, quantified for HIV-1 p24 antigen by using a Innotest HIV antigen mAb assay (Ingen) according to manufacturer's instructions, and used in infection experiments.
Serial dilutions of compounds to be tested were prepared in complete RPMI medium from 10 mM DMSO stock solutions, and distributed in a volume of 20 μl in 96 well Falcon 353072 Microtest™ tissue culture plate, in order to get 0.5% DMSO final concentration in each well, after the addition of infected cells. Control wells contained also 0.5% DMSO final concentration but no compound.
MT4 cells (from the NIH AIDS Research and Reference Reagent Program) in RPMI complete medium were counted (10×10^6 cells per well in Falcon 353047 Multiwell™ 24 well) and infected for 2 hours at 37°, at a multiplicity of infection (moi) of 0.0001-0.00001. Cells were then centrifuged 3 min at 3000 rpm, and washed two times in 1 ml PBS to remove viruses that have not entered in cells. Infected cells were resuspended in complete RPMI at 1.25×10^6 cells/ml, and 80 μl of infected cells were distributed in each well containing compounds to be tested or control wells. The plates were then incubated at 37° for 5 days.
Assay used to measure the inhibition of HIV replication by the compounds (according to Gregg S. Jones et al., Antimicrobial Agents and Chemotherapy, 2009, 53 (3): 1194-1203).
After 5 days of incubation, 50 μl of CellTiter-Glo reagent (Promega Biosciences, Inc., Madison Wis., USA) were added to each well. Cell lysis was carried out at room temperature during 10 min, 150 μl of lysates were transferred in Packard Optiplate 96 well, and luminescence was read on a Fluoroskan (Thermo Scientific).

First: Cc1cccc(-c2ccc3c(c2)CCCO3)c1C(OC(C)(C)C)C(=O)O (stereo not shown) [Example 22, 2-(tert-butoxy)-2-[2-(3,4-dihydro-2H-1-benzopyran-6-yl)-6-methylphenyl]acetic acid]
Second: Cc1cccc(C(OC(C)(C)C)C(=O)O)c1-c1ccc2c(c1)CCCO2 (stereo not shown) [Example 11, 2-(tert-butoxy)-2-[2-(3,4-dihydro-2H-1-benzopyran-6-yl)-3-methylphenyl] acetic acid]
The pEC50 of the first is 0.27 log units higher: 4.59 for the first, 4.32 for the second. The first is the more potent here.

Going from `CC(C)(C)OC(C(=O)O)c1c(C(F)(F)F)ccc(OCc2ccccc2)c1-c1ccc2c(c1)CCCO2` (stereo not shown) [Example 35, 2-[3-(benzyloxy)-2-(3,4-dihydro-2H-1-benzopyran-6-yl)-6-(trifluoromethyl)phenyl]-2-(tert-butoxy)acetic acid] to `CC(C)(C)OC(C(=O)O)c1c(C(F)(F)F)ccc(F)c1-c1ccc2c(c1)CCCO2` (stereo not shown) [Example 34, 2-(tert-butoxy)-2-[2-(3,4-dihydro-2H-1-benzopyran-6-yl)-3-fluoro-6-(trifluoromethyl)phenyl]acetic acid], the pEC50 falls from 5.49 to 4.85 (0.64 log units). The first is the more potent here.

First: CC1(C)CC=C(c2cccc(C(F)(F)F)c2C(OC(C)(C)C)C(=O)O)CC1 (stereo not shown) [Example 36, 2-(tert-butoxy)-2-[2-(4,4-dimethylcyclohex-1-en-1-yl)-6-(trifluoromethyl)phenyl]acetic acid]
Second: CC(C)(C)OC(C(=O)O)c1c(-c2ccc3c(c2)CCCO3)cccc1C(F)(F)F (stereo not shown) [Example 33, 2-(tert-butoxy)-2-[2-(3,4-dihydro-2H-1-benzopyran-6-yl)-6-(trifluoromethyl)phenyl]acetic acid]
The pEC50 of the first is 0.75 log units higher: 5.35 for the first, 4.60 for the second.

`CC(C)(C)OC(C(=O)O)c1ccc(-c2cccc(-c3cccnc3)c2)cc1-c1ccc2c(c1)CCCO2` (stereo not shown) [Example 30, methyl 2-(tert-butoxy)-2-[2-(3,4-dihydro-2H-1-benzopyran-6-yl)-4-[3-(pyridin-3-yl)phenyl]phenyl]acetic acid] and `CC(C)(C)OC(C(=O)O)c1c(-c2ccc3c(c2)CCCO3)ccc2ncccc12` (stereo not shown) [Example 20, 2-(tert-butoxy)-2-[6-(3,4-dihydro-2H-1-benzopyran-6-yl)quinolin-5-yl]acetic acid] are within 0.2 log units of each other in pEC50: 5.38 for the first, 5.42 for the second.

Going from `Cc1ccc(C)c(C(OC(C)(C)C)C(=O)O)c1-c1ccc2c(c1)CCCO2` (stereo not shown) [Example 27, 2-(tert-butoxy)-2-[2-(3,4-dihydro-2H-1-benzopyran-6-yl)-3,6-dimethylphenyl]acetic acid] to `CC(C)(C)OC(C(=O)O)c1cccc(C(F)(F)F)c1-c1ccc2c(c1)CCCO2` (stereo not shown) [Example 21, 2-(tert-butoxy)-2-[2-(3,4-dihydro-2H-1-benzopyran-6-yl)-3-trifluoromethylphenyl]acetic acid], the pEC50 falls from 5.80 to 5.01 (0.79 log units). The first is the more potent here.
